Data as given in publication PMC6283615, “Anilinoquinoline based inhibitors of trypanosomatid proliferation” (PLoS Neglected Tropical Diseases, 2018).
Values after ≈ are worked out from the molar mass of the structure shown. Read-outs that look alike come from different tables or passages of the source.

Columns and labels:
[1] = test system: T. congolense IL3000; assay: In vitro drug sensitivity assay for T. congolense (72 h); assay type: cell-based; settings: Trypanosoma congolense, IL3000 strain
Description: In vitro drug sensitivity assay for T. congolense (72 h): Compounds were tested in vitro for efficacy against the IL3000 T. congolense (drug sensitive) strain which was originally derived from the Trans Mara I strain, isolated from a bovine in 1966 in Kenya. […] Compounds were assayed in at least three separate, independent experiments and an 11-point dilution curve was used to determine the EC50 values. Bloodstream form trypanosomes were supported in HMI-9 medium containing 20% bovine serum and were incubated with test compounds for 69 h at 34°C in a humidified atmosphere containing 5% CO2. Thereafter, 10 μL of Resazurin dye (12.5 mg in 100 mL of phosphate-buffered saline, Sigma-Aldrich, Buchs, Switzerland) was added for an additional 3 h. Plates were read using a fluorescence plate reader (Spectramax, Gemini XS, Bucher Biotec, Basel, Switzerland) using an excitation wavelength of 536 nm and an emission wavelength of 588 nm.

[2] = test system: T. vivax STIB 719 / ILRAD 560; assay: Ex vivo drug sensitivity assay for T. vivax (48 h); assay type: cell-based; settings: Trypanosoma vivax, STIB719, 48 h
Description: Ex vivo drug sensitivity assay for T. vivax (48 h): Compounds were tested ex vivo against the STIB 719 / ILRAD 560 T. vivax (drug sensitive) strain which originated from the Y486 strain, isolated from a naturally infected bovine in 1976 in Zaria, Nigeria. Compounds were assayed in at least three separate, independent experiments and an 11-point dilution curve was used to determine the EC50 values. Bloodstream form trypanosomes were harvested from a highly parasitaemic mouse (via cardiac puncture) and were incubated with test compounds for 45 h at 37°C in a humidified atmosphere containing 5% CO2, supported in HMI-9 medium containing 20% bovine serum. Thereafter, Resazurin dye was added to monitor trypanosome viability as described in the preceding section.

[3] = test system: L. major amastigote; assay: L. major intracellular amastigote luciferase assay in RAW 264.7 macrophages; assay type: cell-based, Leishmania major; settings: intracellular amastigotes in RAW 264.7 macrophages, 96 h
Description: Amastigote assays were performed using pLEXSY-hyg2-luciferase L. major transfected promastigotes and the murine RAW 264.7 macrophage cell line (ATCC TIB-71, Manassas, VA). Briefly, luciferase-expressing promastigotes of each Leishmania species were generated by adding a luciferase encoding region to the pLEXSY-hyg2 vector (Jena Biosciences, Germany) as described. One μg of the linearized pLEXSY-hyg2-luciferase vector were electroporated (480 V, 13 Ω, and 500 μF) into 4×10^7 Leishmania promastigotes. Selection for stable promastigote transfectants was carried out using hygromycin B (100 μg/mL). RAW 264.7 macrophages were maintained in growth medium (Dulbecco’s Modified Eagle’s Medium supplemented with heat-inactivated 10% FBS (Life Technologies)). Cells were harvested and resuspended in growth medium at 2.0×10^5 cells/mL, and 1×10^4 cells/well were dispensed (final volume 50 μL) in each well of a 384 well tissue-culture treated white plate using a EVO Freedom liquid handling system (Tecan, Durham, NC). Plates were incubated at 37°C in 5% CO2 for 24 h after which the culture medium was removed from each well using the EVO Freedom liquid handler. Metacyclic phase pLEXSY-hyg2-luciferase-Leishmania promastigotes (MOI = 1:10 L. major) were added to each assay plate well and allowed to infect the RAW 264.7 macrophages. After an overnight incubation, the growth medium was aspirated and each well was washed three times with 40 μL of fresh growth medium to remove non-internalized promastigotes. After the third wash, 69.2 μL of growth medium was added to each well. Compound dilutions (final concentration ranges 0.5–10,000 ng/mL) were generated and dispensed using the liquid handling system. Compound treated plates were incubated at 37°C in 5% CO2 for 96 h. After incubation, 7.5 μL of a luciferin solution (Caliper Life Science, Waltham, MA) diluted to 150 μg/mL was added to each well, and the plates were incubated for 30 min at 37°C in the dark. Data were captured using an Infinite M200 plate reader (Tecan). EC50s were generated for each concentration response test using GraphPad Prism software 6.0.

[4] = test system: T. b. brucei (strain 427); assay: T. b. brucei proliferation assay (PrestoBlue, 48 h); assay type: cell-based, Trypanosoma brucei brucei
Description: The assay was performed following a previously reported procedure. Briefly, in a 96-well plate, compounds were added in triplicates at 50 μM and in serial dilutions 1:2 in HMI-9 medium. To each well, 100 μL of 2.5×10^3 T. b. brucei (strain 427, received as a gift from Dr. C. C. Wang at UCSF) in HMI-9 medium was were added and incubated at 37°C, 5% CO2 for 48 h. Following incubation, 20 μL of PrestoBlue were added to each well and incubated for additional 4 h. Fluorescence was read at 530 nm excitation and 590 nm emission.

[5] = LogD7.4; assay type: physicochemical; settings: pH 7.4
[6] = Aqueous solubility; assay type: physicochemical
[7] = Rat hepatocyte intrinsic clearance; assay type: in vitro ADME; settings: for hepatocyte CLint: hepatocytes
[8] = test system: T. cruzi amastigote (Tulahuen strain expressing β-galactosidase); assay: Intracellular T. cruzi assay in 3T3 cells (beta-galactosidase, 96 h); assay type: cell-based, Trypanosoma cruzi; settings: read-out: T. cruzi amastigote EC50
Description: In a 96-well plate, 5×10^4 3T3 cells in DMEM without phenol red supplemented with 2% FBS were added to each well. Cells were incubated for 2 h to allow for attachment. Compounds were added in triplicates at 50 μM and in serial dilutions 1:2. To each well, 5×10^4 T. cruzi trypomastigotes (Tulahuen strain expressing β-galactosidase) were added and incubated at 37°C, 5% CO2 for 96 h. Following incubation, 50 μL of 500 μM chlorophenol Red-β-D-galactopyranoside (CPRG) in phosphate-buffered saline with 0.5% NP40 was added to each well and incubated at 37°C, 5% CO2 for 4 h. Absorbance was read at 590–595 nm.

[9] = Human liver microsome intrinsic clearance; assay type: in vitro ADME; settings: for microsomal CLint: liver microsomes
[10] = Human plasma protein binding; assay type: in vitro ADME
[11] = test system: HepG2 cells; assay: Drug toxicity to HepG2 cells (MTT, 48 h); assay type: cell-based, human; settings: tested concentration ranges based on compound solubility
Description: HepG2 cells were cultured in complete Minimal Essential Medium prepared by supplementing MEM with 0.19% sodium bicarbonate, 10% heat inactivated FBS, 2 mM L-glutamine, 0.1 mM MEM non-essential amino, 0.009 mg/mL insulin, 1.76 mg/mL bovine serum albumin, 20 units/mL penicillin–streptomycin, and 0.05 mg/mL gentamycin. HepG2 cells cultured in complete MEM were first washed with 1× Hank’s Balanced Salt Solution (Invitrogen #14175095), trypsinized using a 0.25% trypsin/EDTA solution, assessed for viability using trypan blue, and resuspended at 250,000 cells/mL. Using a Tecan EVO Freedom robot, 38.3 μL of cell suspension were added to each well of clear, cell culture-treated 384-well microtiter plates for a final concentration of 9570 liver cells per well, and plated cells were incubated overnight in 5% CO2 at 37°C. Drug plates were prepared with the Tecan EVO Freedom using sterile 96 well plates containing twelve duplicate 1.6-fold serial dilutions of each test compound suspended in DMSO. 4.25 μL of diluted test compound was then added to the 38.3 μL of media in each well providing a […] final dilution of compound. Compounds were tested from a range of 57 ng/mL to 10,000 ng/mL for all assays. Mefloquine was used as a plate control for all assays with a concentration ranging from 113 ng/mL to 20,000 ng/mL. After a 48 h incubation period, 8 μL of a 1.5 mg/mL solution of MTT diluted in complete MEM media was added to each well. All plates were subsequently incubated in the dark for 1 h at room temperature. After incubation, the media and drugs in each well was removed by shaking the plate over sink, and the plates were left to dry in a fume hood for 15 mins. Next, 30 μL of isopropanol acidified by addition of HCl at a final concentration of 0.36% was added to dissolve the formazan dye crystals created by reduction of MTT. Plates are put on a 3-D rotator for 15–30 mins. Absorbance was determined in all wells using a Tecan iControl 1.6 Infinite plate reader.

[12] = test system: NIH/3T3 cells; assay: Drug toxicity to 3T3 cells (Alamar Blue, 96 h); assay type: cell-based
Description: In a 96-well plate, 5×10^4 NIH/3T3 (ATCC CRL-1658) cells (purchased from ATCC) in DMEM without phenol red supplemented with 2% FBS were added to each well. Cells were incubated for 2 h to allow for attachment. Compounds were added in triplicates at 200 μM and in serial dilutions 1:2 and incubated at 37°C, 5% CO2 for 96 h. […] Following incubation, 10 μL of Alamar Blue (ThermoFisher) were added to each well and cells incubated at 37°C, 5% CO2 for 4 h. Absorbance was read at 590–595 nm.

[13] = Trypanosoma cruzi, TULAHUEN, NIH3T3, 96 h
[14] = intracellular in 3T3 cells, 96 h

| Compound | EC50 [1] [µM] | EC50 [2] [µM] | EC50 ([3]; Leishmania major, RAW264.7) [µM] | EC50 ([4]; Trypanosoma brucei) [µM] | logD [5] | solubility [6] [µM] | hepatocyte CLint [7] [µL/min/1e6 cells] | EC50 [8, 13] [µM] | microsomal CLint [9] [µL/min/mg] | EC50 [3] [µM] | EC50 [4] [µM] | LogD7.4 [5] | Human PPB [10] [%] | Rat Hepatocyte CLint [7] [μL/min/10^6 cells] | HepG2 TC50 [11] [µM] | EC50 [8, 14] [µM] | 3T3 TC50 [12] [µM] | Human Liver Microsome CLint [9] [µL/min/mg] |
| --- | --- | --- | --- | --- | --- | --- | --- | --- | --- | --- | --- | --- | --- | --- | --- | --- | --- | --- |
| CC[n+]1c(-c2ccccc2)c2cc(N/N=N/c3cccc(C(=N)N)c3)ccc2c2ccc(N)cc21 [Isometamidium, isometamidium chloride, reference compound] | 0.006 | 0.00012 |  |  |  |  |  |  |  |  |  |  |  |  |  |  |  |  |
| CN1CCN(c2nsnc2-c2ccc3c(Nc4ccc(OCc5cccc(F)c5)c(Cl)c4)ccnc3c2)CC1 [Compound 15] | 0.39 | 0.21 | 0.96 | 0.14 | 4.1 | < 0.1 | 35 | 4.7 | 35 |  |  |  |  |  |  |  |  |  |
| Cc1ccc(-c2ccc3c(Nc4cnccn4)ccnc3c2)o1 [NEU-2133] |  |  |  |  |  | 4 (≈ 1.21 µg/mL) |  |  |  | 33 | 5.3 | 4 | 99 | 290 | 50 | 0.79 | > 50 | 190 |
| Cc1cnc(Nc2ccc3c(Nc4cnccn4)ccnc3c2)s1 [NEU-2149] |  |  |  |  |  | 1 (≈ 0.334 µg/mL) |  |  |  | 5.3 | 2.3 | 3.7 | 96 | > 300 | 5 | > 50 | > 50 | 54 |
| Cn1ccnc1Nc1ccc2c(Nc3cnccn3)ccnc2c1 [NEU-2147] |  |  |  |  |  | 160 (≈ 50.8 µg/mL) |  |  |  | 5.5 | 49 | 1.7 | 57 | 37 | 42 | > 50 | > 100 | 12 |
| Cc1nn(C)c(C)c1Nc1ccc2c(Nc3cnccn3)ccnc2c1 [NEU-2142] |  |  |  |  |  | 570 (≈ 197 µg/mL) |  |  |  | 26 | 23 | 2 | 59 | 32 | 39 | > 50 | > 100 | 13 |
| Cn1nccc1Nc1ccc2c(Nc3cnccn3)ccnc2c1 [NEU-2144] |  |  |  |  |  | 100 (≈ 31.7 µg/mL) |  |  |  | 28 | 14 | 2.4 | 69 | 16 | 35 | > 50 | > 50 | 10 |
| c1cnc(Nc2ccnc3cc(Nc4nccs4)ccc23)cn1 [NEU-2141] |  |  |  |  |  | 4 (≈ 1.28 µg/mL) |  |  |  | 24 | 4.4 | 3.3 | 91 | 270 | 7.1 | 22 | 24 | 68 |
| CC(C)(C)OC(=O)Nc1ccc2c(Nc3ccc(OCc4cccc(F)c4)c(Cl)c3)ccnc2c1 [Compound 21] | 0.83 | 0.29 | 1.1 | 0.15 | 4.3 | 0.2 (≈ 0.0988 µg/mL) | 48 | 0.6 | 29 |  |  |  |  |  |  |  |  |  |
| COc1ccc(Nc2ccnc3cc(-c4ccc(C)o4)ccc23)cc1Cl [NEU-2134] |  |  |  |  |  | 0.1 (≈ 0.0365 µg/mL) |  |  |  | 27 | > 20 | 4.8 | > 99 | 193 | 42 | 1.2 | > 100 | > 300 |
| CN1CCN(c2ncc(-c3ccc4c(Nc5ccc6[nH]nnc6c5)ccnc4c3)cn2)CC1 [NEU-1957] |  |  |  |  |  | < 1 |  |  |  | 21 | 21 | 3.3 | 91 | 51 | 14 | > 50 | > 100 | 120 |
| N=C(N)c1ccc(/N=N/Nc2ccc(C(=N)N)cc2)cc1 [Diminazene, diminazene aceturate, reference compound] | 0.13 | 0.1 |  | 0.009 |  |  |  |  |  |  |  |  |  |  |  |  |  |  |
